Values quoted from earlier work in US20140088035A1, “TREATING SCHIZOPHRENIA” (THE GENERAL HOSPITAL CORPORATION, priority 2010, published 2014).

System: schizophrenia patients
Conditions: vitamin supplementation regimens; Levine et al. 2006, Godfrey et al. 1990

Nc1nc2ncc(CNc3ccc(C(=O)N[C@@H](CCC(=O)O)C(=O)O)cc3)nc2c(=O)[nH]1 [folate, pteroyl-L-glutamic acid]
symptomatic improvement in schizophrenia patients: associated with symptomatic improvement
